Drawing on patent publication US7297700B2, “Bicycloheteroaryl compounds as P2X7 modulators and uses thereof” (Renovis, Inc., priority 2005, dated 2007), this text covers IL-1β % inhibition for 51 molecules.

This assay deals with IL-1β release from THP-1 cells. Briefly: IL-1β Release Assay (Alternate Method), THP-1 cells. Format: cell-based, human. As to conditions: at 0.3 μM; THP-1 cells, BzATP-stimulated. A digest of the protocol: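 IL-1β release, measured by ELISA, follows 45 min BzATP (250 uM final) stimulation of THP-1 cells given 30 min compound pretreatment. Cells were first primed 16 h with LPS and IFN-γ (100 ng/mL each), then 2 h with fresh LPS; inhibition expressed in percent after background correction.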
As to `O=C(Nc1ncnc2c1CCN(Cc1cccnc1)C2)C12CC3CC(CC(C3)C1)C2` [Compound 560], the IL-1β % inhibition entry is reported as “++ (compound exhibited 25-50% inhibition at 0.3 μM)”.
As for `COc1ccc(CN2CCc3c(ncnc3NC(=O)C34CC5CC(CC(C5)C3)C4)C2)cc1` [Compound 562], the IL-1β % inhibition entry was “+ (compound exhibited 0-25% inhibition at 0.3 μM)”.
Turning to `O=C(Nc1ncnc2c1CCN(Cc1ccc3c(c1)OCO3)C2)C12CC3CC(CC(C3)C1)C2` [Compound 564], the IL-1β % inhibition result is reported as “++++ (compound exhibited 75% or greater inhibition at 0.3 μM)”.
The result for `O=C(Nc1ncnc2c1CCN(Cc1ccc3ccccc3c1)C2)C12CC3CC(CC(C3)C1)C2` [Compound 565] reads “++++ (compound exhibited 75% or greater inhibition at 0.3 μM)”; that for `COc1ccc(CN2CCc3c(ncnc3NC(=O)C34CC5CC(CC(C5)C3)C4)C2)cc1OC` [Compound 566], “+ (compound exhibited 0-25% inhibition at 0.3 μM)”; that for `Cc1ccc2occ(CN3CCc4c(ncnc4NC(=O)C45CC6CC(CC(C6)C4)C5)C3)c(=O)c2c1` [Compound 567], “++ (compound exhibited 25-50% inhibition at 0.3 μM)”.
In the case of `O=C(Nc1ncnc2c1CCN(Cc1cccc(Oc3ccccc3)c1)C2)C12CC3CC(CC(C3)C1)C2` [Compound 568] it was “+ (compound exhibited 0-25% inhibition at 0.3 μM)”; in that of `O=C(Nc1ncnc2c1CCN(Cc1ccc(Cl)cc1Cl)C2)C12CC3CC(CC(C3)C1)C2` [Compound 570], “++ (compound exhibited 25-50% inhibition at 0.3 μM)”; in that of `N#Cc1cccc(CN2CCc3c(ncnc3NC(=O)C34CC5CC(CC(C5)C3)C4)C2)c1` [Compound 571], “++++ (compound exhibited 75% or greater inhibition at 0.3 μM)”.
In the case of `CC(C)(C)c1ccc(CN2CCc3c(ncnc3NC(=O)C34CC5CC(CC(C5)C3)C4)C2)cc1` [Compound 572] it was “++++ (compound exhibited 75% or greater inhibition at 0.3 μM)”.
Regarding `O=C(Nc1ncnc2c1CCN(Cc1ccc(Oc3ccccc3)cc1)C2)C12CC3CC(CC(C3)C1)C2` [Compound 576], the IL-1β % inhibition entry is recorded as “+++ (compound exhibited 50-75% inhibition at 0.3 μM)”.
In the case of `CC(C)CCN1CCc2c(ncnc2NC(=O)C23CC4CC(CC(C4)C2)C3)C1` [Compound 583], the IL-1β % inhibition result is “+ (compound exhibited 0-25% inhibition at 0.3 μM)”.
For the molecule `COc1cccc(CN2CCc3c(ncnc3NC(=O)C34CC5CC(CC(C5)C3)C4)C2)c1` [Compound 584], the IL-1β % inhibition result is reported as “+ (compound exhibited 0-25% inhibition at 0.3 μM)”.
The result for `Cc1ccc(CN2CCc3c(ncnc3NC(=O)C34CC5CC(CC(C5)C3)C4)C2)cc1C` [Compound 585] reads “++ (compound exhibited 25-50% inhibition at 0.3 μM)”.
In the case of `COc1cc(CN2CCc3c(ncnc3NC(=O)C34CC5CC(CC(C5)C3)C4)C2)ccc1OCc1ccccc1` [Compound 588] it was “++ (compound exhibited 25-50% inhibition at 0.3 μM)”; in that of `O=C(Nc1ncnc2c1CCN(Cc1ccc3c(c1)OCCO3)C2)C12CC3CC(CC(C3)C1)C2` [Compound 589], “+++ (compound exhibited 50-75% inhibition at 0.3 μM)”; in that of `O=C(Nc1ncnc2c1CCN(Cc1ccc(Cl)c(Cl)c1)C2)C12CC3CC(CC(C3)C1)C2` [Compound 590], “+ (compound exhibited 0-25% inhibition at 0.3 μM)”.
In the case of `COc1ccc(CN2CCc3c(ncnc3NC(=O)C34CC5CC(CC(C5)C3)C4)C2)cc1OCc1ccccc1` [Compound 592] it was “++++ (compound exhibited 75% or greater inhibition at 0.3 μM)”; in that of `COc1ccc(CN2CCc3c(ncnc3NC(=O)C34CC5CC(CC(C5)C3)C4)C2)cc1O` [Compound 593], “+ (compound exhibited 0-25% inhibition at 0.3 μM)”.
As to `COc1cc(CN2CCc3c(ncnc3NC(=O)C34CC5CC(CC(C5)C3)C4)C2)cc(Br)c1OC` [Compound 594], the IL-1β % inhibition result was “+ (compound exhibited 0-25% inhibition at 0.3 μM)”.
On to `N#Cc1cc(CN2CCc3c(ncnc3NC(=O)C34CC5CC(CC(C5)C3)C4)C2)ccc1F` [Compound 595], for which the IL-1β % inhibition entry is listed as “+ (compound exhibited 0-25% inhibition at 0.3 μM)”.
For `O=C(Nc1ncnc2c1CCN(Cc1cccc3c1OCO3)C2)C12CC3CC(CC(C3)C1)C2` [Compound 596], the IL-1β % inhibition entry is reported as “+++ (compound exhibited 50-75% inhibition at 0.3 μM)”.
The result for `O=C(Nc1ncnc2c1CCN(Cc1ccc(Br)cc1)C2)C12CC3CC(CC(C3)C1)C2` [Compound 597] reads “+++ (compound exhibited 50-75% inhibition at 0.3 μM)”.
In the case of `O=C(Nc1ncnc2c1CCN(Cc1cccc(Cl)c1)C2)C12CC3CC(CC(C3)C1)C2` [Compound 598] it was “+ (compound exhibited 0-25% inhibition at 0.3 μM)”; in that of `O=C(Nc1ncnc2c1CCN(Cc1cc3c(cc1Cl)OCO3)C2)C12CC3CC(CC(C3)C1)C2` [Compound 599], “+ (compound exhibited 0-25% inhibition at 0.3 μM)”.
The result for `O=C(Nc1ncnc2c1CCN(Cc1ccc(Cl)cc1)C2)C12CC3CC(CC(C3)C1)C2` [Compound 601] reads “+++ (compound exhibited 50-75% inhibition at 0.3 μM)”; that for `Cc1ccc(CN2CCc3c(ncnc3NC(=O)C34CC5CC(CC(C5)C3)C4)C2)cc1` [Compound 602], “++ (compound exhibited 25-50% inhibition at 0.3 μM)”.
Consider `N#Cc1ccc(CN2CCc3c(ncnc3NC(=O)C34CC5CC(CC(C5)C3)C4)C2)cc1` [Compound 603], for which the IL-1β % inhibition entry was “+ (compound exhibited 0-25% inhibition at 0.3 μM)”.
Regarding `O=C(Nc1ncnc2c1CCN(Cc1ccc(C(F)(F)F)cc1)C2)C12CC3CC(CC(C3)C1)C2` [Compound 604], the IL-1β % inhibition entry is reported as “++++ (compound exhibited 75% or greater inhibition at 0.3 μM)”.
In the case of `O=C(Nc1ncnc2c1CCN(Cc1cccc(F)c1)C2)C12CC3CC(CC(C3)C1)C2` [Compound 605] it was “+ (compound exhibited 0-25% inhibition at 0.3 μM)”.
Turning to `Cc1cccc(CN2CCc3c(ncnc3NC(=O)C34CC5CC(CC(C5)C3)C4)C2)c1` [Compound 606], the IL-1β % inhibition result is recorded as “+ (compound exhibited 0-25% inhibition at 0.3 μM)”.
The result for `O=C(Nc1ncnc2c1CCN(Cc1ccc(F)cc1)C2)C12CC3CC(CC(C3)C1)C2` [Compound 607] reads “++++ (compound exhibited 75% or greater inhibition at 0.3 μM)”; that for `COc1ccc(CN2CCc3c(ncnc3NC(=O)C34CC5CC(CC(C5)C3)C4)C2)c(OC)c1` [Compound 608], “+ (compound exhibited 0-25% inhibition at 0.3 μM)”; that for `O=C(Nc1ncnc2c1CCN(Cc1ccncc1)C2)C12CC3CC(CC(C3)C1)C2` [Compound 610], “+ (compound exhibited 0-25% inhibition at 0.3 μM)”.
In the case of `O=C(Nc1ncnc2c1CCN(Cc1ccc(Cl)c(F)c1)C2)C12CC3CC(CC(C3)C1)C2` [Compound 611] it was “+++ (compound exhibited 50-75% inhibition at 0.3 μM)”; in that of `O=C(Nc1ncnc2c1CCN(Cc1ccc(C(F)(F)F)cc1F)C2)C12CC3CC(CC(C3)C1)C2` [Compound 612], “++++ (compound exhibited 75% or greater inhibition at 0.3 μM)”; in that of `O=C(Nc1ncnc2c1CCN(Cc1ccc(Br)nc1)C2)C12CC3CC(CC(C3)C1)C2` [Compound 613], “+ (compound exhibited 0-25% inhibition at 0.3 μM)”.
The result for `O=C(Nc1ncnc2c1CCN(Cc1cccc(Br)c1)C2)C12CC3CC(CC(C3)C1)C2` [Compound 614] reads “+ (compound exhibited 0-25% inhibition at 0.3 μM)”; that for `COc1ccccc1CN1CCc2c(ncnc2NC(=O)C23CC4CC(CC(C4)C2)C3)C1` [Compound 615], “+++ (compound exhibited 50-75% inhibition at 0.3 μM)”.
For `O=C(Nc1ncnc2c1CCN(Cc1cc(Br)ccc1F)C2)C12CC3CC(CC(C3)C1)C2` [Compound 618], the IL-1β % inhibition entry is “+ (compound exhibited 0-25% inhibition at 0.3 μM)”.
For the molecule `O=C(Nc1ncnc2c1CCN(CC1CCCC1)C2)C12CC3CC(CC(C3)C1)C2` [Compound 619], the IL-1β % inhibition entry is “+ (compound exhibited 0-25% inhibition at 0.3 μM)”.
Turning to `O=C(Nc1ncnc2c1CCN(Cc1ccc(OC(F)(F)F)cc1)C2)C12CC3CC(CC(C3)C1)C2` [Compound 620], the IL-1β % inhibition result is listed as “++ (compound exhibited 25-50% inhibition at 0.3 μM)”.
In the case of `O=C(Nc1ncnc2c1CCN(Cc1ccc(OC(F)F)cc1)C2)C12CC3CC(CC(C3)C1)C2` [Compound 621] it was “+++ (compound exhibited 50-75% inhibition at 0.3 μM)”; in that of `O=C(Nc1ncnc2c1CCN(Cc1ccc(OCc3ccc(F)cc3)cc1)C2)C12CC3CC(CC(C3)C1)C2` [Compound 622], “++ (compound exhibited 25-50% inhibition at 0.3 μM)”.
In the case of `COc1cc(F)c(CN2CCc3c(ncnc3NC(=O)C34CC5CC(CC(C5)C3)C4)C2)cc1OC` [Compound 623] it was “+ (compound exhibited 0-25% inhibition at 0.3 μM)”; in that of `COc1cc(F)c(CN2CCc3c(ncnc3NC(=O)C34CC5CC(CC(C5)C3)C4)C2)c(F)c1` [Compound 624], “+ (compound exhibited 0-25% inhibition at 0.3 μM)”.
The result for `CCOc1cccc(CN2CCc3c(ncnc3NC(=O)C34CC5CC(CC(C5)C3)C4)C2)c1` [Compound 625] reads “+ (compound exhibited 0-25% inhibition at 0.3 μM)”; that for `O=C(Nc1ncnc2c1CCN(Cc1cccc(Oc3cccc(C(F)(F)F)c3)c1)C2)C12CC3CC(CC(C3)C1)C2` [Compound 626], “++ (compound exhibited 25-50% inhibition at 0.3 μM)”.
In the case of `O=C(Nc1ncnc2c1CCN(Cc1ccc3c(c1)OC(F)(F)O3)C2)C12CC3CC(CC(C3)C1)C2` [Compound 627], the IL-1β % inhibition entry is given as “++++ (compound exhibited 75% or greater inhibition at 0.3 μM)”.
In the case of `COc1ccc(F)c(CN2CCc3c(ncnc3NC(=O)C34CC5CC(CC(C5)C3)C4)C2)c1` [Compound 628], the IL-1β % inhibition result was “+ (compound exhibited 0-25% inhibition at 0.3 μM)”.
The result for `COc1cc(CN2CCc3c(ncnc3NC(=O)C34CC5CC(CC(C5)C3)C4)C2)ccc1F` [Compound 629] reads “+ (compound exhibited 0-25% inhibition at 0.3 μM)”.
